Experimental data published in PubChem BioAssay (NCI).
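96-well plates; 48 h exposure; 5 concentrations. Endpoints by linear interpolation between flanking doses. Not reached: highest tested concentration assigned. GI50 is the concentration that inhibits growth by half. TGI marks complete inhibition of growth.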

Legend:
Assay in all cases: NCI tumour cell line growth inhibition, 48 h
NCI-H23 lung = test system: NCI-H23 lung
NCI-H460 lung = test system: NCI-H460 lung
NCI-H522 lung = test system: NCI-H522 lung
NCI/ADR-RES ovarian = test system: NCI/ADR-RES ovarian
OVCAR-3 ovarian = test system: OVCAR-3 ovarian
OVCAR-4 ovarian = test system: OVCAR-4 ovarian
OVCAR-5 ovarian = test system: OVCAR-5 ovarian
OVCAR-8 ovarian = test system: OVCAR-8 ovarian
PC-3 prostate = test system: PC-3 prostate
RPMI-8226 leukemia = test system: RPMI-8226 leukemia
RXF 393 renal = test system: RXF 393 renal
SF-268 CNS = test system: SF-268 CNS
SF-295 CNS = test system: SF-295 CNS
SF-539 CNS = test system: SF-539 CNS
SK-MEL-2 melanoma = test system: SK-MEL-2 melanoma
SK-MEL-28 melanoma = test system: SK-MEL-28 melanoma
SK-MEL-5 melanoma = test system: SK-MEL-5 melanoma
SK-OV-3 ovarian = test system: SK-OV-3 ovarian
SN12C renal = test system: SN12C renal
SNB-19 CNS = test system: SNB-19 CNS
SNB-75 CNS = test system: SNB-75 CNS
SR leukemia = test system: SR leukemia
SW-620 colon = test system: SW-620 colon
T-47D breast = test system: T-47D breast
U251 CNS = test system: U251 CNS
UACC-257 melanoma = test system: UACC-257 melanoma
UACC-62 melanoma = test system: UACC-62 melanoma
UO-31 renal = test system: UO-31 renal

What does the source list for `Cc1nc2cc(Nc3nc(Nc4ccc(F)cc4)nc(-c4ccc(Cl)cc4)n3)ccc2n1Cc1ccccc1`?
TGI (NCI-H23 lung): > 100 µM; GI50 (NCI-H460 lung): 6.42 µM; TGI (NCI-H460 lung): > 100 µM; GI50 (NCI-H522 lung): 10.8 µM; TGI (NCI-H522 lung): 68.2 µM; GI50 (NCI/ADR-RES ovarian): 5.51 µM; TGI (NCI/ADR-RES ovarian): 33.8 µM; GI50 (OVCAR-3 ovarian): 7.91 µM; TGI (OVCAR-3 ovarian): > 100 µM; GI50 (OVCAR-4 ovarian): 2.86 µM; TGI (OVCAR-4 ovarian): 17.6 µM; GI50 (OVCAR-5 ovarian): 5.76 µM; TGI (OVCAR-5 ovarian): > 100 µM; GI50 (OVCAR-8 ovarian): 3.93 µM; TGI (OVCAR-8 ovarian): 22 µM; GI50 (PC-3 prostate): 3.69 µM; TGI (PC-3 prostate): > 100 µM; GI50 (RPMI-8226 leukemia): 2.62 µM; TGI (RPMI-8226 leukemia): > 100 µM; GI50 (RXF 393 renal): 4.21 µM; TGI (RXF 393 renal): 38.5 µM; GI50 (SF-268 CNS): 10.1 µM; TGI (SF-268 CNS): 97.3 µM; GI50 (SF-295 CNS): 4.81 µM; TGI (SF-295 CNS): 58 µM; GI50 (SF-539 CNS): 11.3 µM; TGI (SF-539 CNS): 28.7 µM; GI50 (SK-MEL-2 melanoma): 4.07 µM; TGI (SK-MEL-2 melanoma): 41.1 µM; GI50 (SK-MEL-28 melanoma): 8.63 µM; TGI (SK-MEL-28 melanoma): > 100 µM; GI50 (SK-MEL-5 melanoma): 3.47 µM; TGI (SK-MEL-5 melanoma): > 100 µM; GI50 (SK-OV-3 ovarian): 10.9 µM; TGI (SK-OV-3 ovarian): > 100 µM; GI50 (SN12C renal): 46.4 µM; TGI (SN12C renal): > 100 µM; GI50 (SNB-19 CNS): 9.77 µM; TGI (SNB-19 CNS): > 100 µM; GI50 (SNB-75 CNS): 2.2 µM; TGI (SNB-75 CNS): 10.5 µM; GI50 (SR leukemia): 2.88 µM; TGI (SR leukemia): 9.55 µM; GI50 (SW-620 colon): 7.55 µM; TGI (SW-620 colon): > 100 µM; GI50 (T-47D breast): 2.44 µM; TGI (T-47D breast): 24.8 µM; GI50 (U251 CNS): 12.5 µM; TGI (U251 CNS): > 100 µM; GI50 (UACC-257 melanoma): 8.91 µM; TGI (UACC-257 melanoma): > 100 µM; GI50 (UACC-62 melanoma): 6.3 µM; TGI (UACC-62 melanoma): > 100 µM; GI50 (UO-31 renal): 3.59 µM; TGI (UO-31 renal): > 100 µM
